SMILES strings stand for the structures.

The text below walks through data of patent US9572812B2, “Compositions and methods involving polymer, solvent, and high viscosity liquid carrier material” (DURECT CORPORATION, priority 2013, dated 2017).

Data set [1] in a line: Density and viscosity of placebo vehicle and formulation. In kind it is physicochemical. The source says: Formulation No. R66 consisted of SAIB/NMP/PLGA/RSP in the following weight proportion: 45.5/27.3/18.2/9.0. Formulation No. R131 consisted of SAIB/PC/PLGA/RSP in the following weight proportions 40.0/33.7/17.3/9.0. It should be noted that Formulation Nos. […] and […] were formulated to yield approximately the same viscosity (see below Table). However, to achieve similar viscosities, more PC must be added to the vehicle, with a corresponding decrease in SAIB (and a minor decrease in PLGA). [table] The difference in the above-noted settling versus the difference in vehicle density is notable. As shown in the first Table of this Example, the viscosity of the placebo vehicle for Formulation No. R66 at 5° C. is slightly higher than the viscosity of the placebo vehicle for Formulation No. R131 at 5° C. […] R131

Data set [2] can be described thus: Risperidone solubility in vehicle / solvent. In kind it is physicochemical. The conditions noted are these: NMP versus PC.

The molecule `Cc1nc2n(c(=O)c1CCN1CCC(c3noc4cc(F)ccc34)CC1)CCCC2` [risperidone] registered a density of risperidone in data set [1] of 1.30 g/mL. For the same molecule, in data set [2], the “risperidone solubility in solvents” value is on record as “higher solubility in NMP than in PC”.
